Tests used:
ECF–FolT2 [1] = target: T1, ECF–FolT2 (Lactobacillus delbrueckii, UniProt Q1GBI9+Q1GBJ0); assay: crystal structure […] Å; format: binding; details: 10 mM MgCl2; one AMP-PNP bound to each of EcfA and EcfA'; ATPase dimer open
T1 construct: gene ecfA1; full ECF complex EcfA-EcfA'-EcfT-FolT2; N-terminal His10-tag and TEV site on EcfA, C-terminal STREPII tag on FolT2; expressed in E. coli MC1061; nucleotide sites on EcfA and EcfA'; with Energy-coupling factor transporter transmembrane protein EcfT; Folate family ECF transporter S component FolT2
T1 sequence (Q1GBI8 entry or part of it): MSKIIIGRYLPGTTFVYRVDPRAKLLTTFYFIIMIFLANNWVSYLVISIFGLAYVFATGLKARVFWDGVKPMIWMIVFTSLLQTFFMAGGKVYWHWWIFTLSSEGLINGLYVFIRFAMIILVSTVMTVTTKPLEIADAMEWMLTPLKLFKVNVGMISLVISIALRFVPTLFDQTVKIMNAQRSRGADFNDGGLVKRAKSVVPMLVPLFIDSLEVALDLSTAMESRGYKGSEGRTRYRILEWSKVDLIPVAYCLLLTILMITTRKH
T1 sequence (Q1GBJ0 whole entry): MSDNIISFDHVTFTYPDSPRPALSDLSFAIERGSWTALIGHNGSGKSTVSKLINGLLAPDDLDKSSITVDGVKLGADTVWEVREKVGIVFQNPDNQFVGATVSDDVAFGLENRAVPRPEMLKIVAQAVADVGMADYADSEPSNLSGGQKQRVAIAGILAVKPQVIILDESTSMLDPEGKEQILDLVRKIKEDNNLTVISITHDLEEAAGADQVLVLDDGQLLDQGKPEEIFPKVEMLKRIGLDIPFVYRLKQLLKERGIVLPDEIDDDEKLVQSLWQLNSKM
T1 sequence (Q1GBI9 whole entry): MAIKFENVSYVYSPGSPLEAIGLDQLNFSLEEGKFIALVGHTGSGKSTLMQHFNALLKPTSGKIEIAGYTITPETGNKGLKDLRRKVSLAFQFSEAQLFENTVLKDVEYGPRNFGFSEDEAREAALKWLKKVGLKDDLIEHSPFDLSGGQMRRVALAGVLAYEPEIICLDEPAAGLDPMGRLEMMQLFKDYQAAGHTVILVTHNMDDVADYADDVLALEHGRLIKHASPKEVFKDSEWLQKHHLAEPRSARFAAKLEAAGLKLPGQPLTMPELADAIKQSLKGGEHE
T1 sequence (Q1G929 entry or part of it, further chain): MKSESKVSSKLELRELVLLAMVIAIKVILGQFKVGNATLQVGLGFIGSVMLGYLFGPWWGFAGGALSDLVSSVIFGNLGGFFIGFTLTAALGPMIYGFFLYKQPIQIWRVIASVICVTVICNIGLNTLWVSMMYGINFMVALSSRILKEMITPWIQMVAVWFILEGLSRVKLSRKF

ECF–FolT2 [2] = target: T1, ECF–FolT2; assay: coupled-enzyme ATPase assay in proteoliposomes; format: biochemical; details: 1 mM MgATP, 50 mM KPi pH 7.5, 200 mM NaCl, 30 °C
FolT2 = target: T2, FolT2 (Lactobacillus delbrueckii, UniProt Q1G929); assay: intrinsic fluorescence titration; format: binding; details: read-out: dissociation constant
T2 construct: gene Ldb1625; solitary S-component, N-terminal His8-tag, expressed in Lactococcus lactis NZ9000, purified in n-nonyl-beta-D-glucopyranoside
T2 sequence (Q1G929 entry or part of it): as the sequence (Q1G929 entry or part of it, further chain) above

ECF–FolT2 [3] = target: T3, ECF–FolT2 (Lactobacillus delbrueckii, UniProt Q1G929); assay: radiolabelled folate uptake and efflux in proteoliposomes; format: biochemical; details: 5 mM luminal MgATP, 100 nM folate, pH 7.5, 25 °C; labelled compound
T3 construct: gene Ldb1625; His10-EcfA, FolT2-STREPII; expressed in E. coli MC1061; reconstituted in proteoliposomes; Energy-coupling factor transporter transmembrane protein EcfT
T3 sequence (Q1GBI8 entry or part of it): as the sequence (Q1GBI8 entry or part of it) above
T3 sequence (Q1GBJ0 whole entry, further chain): as the sequence (Q1GBJ0 whole entry) above
T3 sequence (Q1GBI9 whole entry, further chain): as the sequence (Q1GBI9 whole entry) above
T3 sequence (Q1G929 entry or part of it): as the sequence (Q1G929 entry or part of it, further chain) above

FolT1 [4] = target: T4, FolT1 (Lactobacillus delbrueckii, UniProt Q1G930, Y122N); assay: intrinsic fluorescence titration; format: binding; details: read-out: dissociation constant
T4 construct: gene Ldb1624; solitary S-component, N-terminal His8-tag, expressed in Lactococcus lactis NZ9000, purified in n-nonyl-beta-D-glucopyranoside
T4 sequence (Q1G930 entry or part of it Y122N): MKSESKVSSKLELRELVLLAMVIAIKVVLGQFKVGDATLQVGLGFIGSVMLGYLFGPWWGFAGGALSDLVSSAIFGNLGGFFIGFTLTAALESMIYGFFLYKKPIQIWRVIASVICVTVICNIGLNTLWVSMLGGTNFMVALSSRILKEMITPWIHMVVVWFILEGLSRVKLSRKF

ECF–FolT1 = target: T5, ECF–FolT1 (Lactobacillus delbrueckii, UniProt Q1G930); assay: radiolabelled folate uptake in proteoliposomes; format: biochemical; details: luminal MgATP; labelled compound
T5 construct: gene Ldb1624; full ECF complex EcfA-EcfA'-EcfT-FolT1; His10-EcfA, FolT1-STREPII; expressed in E. coli MC1061; reconstituted in proteoliposomes; Energy-coupling factor transporter transmembrane protein EcfT
T5 sequence (Q1GBJ0 whole entry): as the sequence (Q1GBJ0 whole entry) above
T5 sequence (Q1G930 entry or part of it): as the sequence (Q1G930 entry or part of it Y122N) above, with N122Y counted along it
T5 sequence (Q1GBI9 whole entry, further chain): as the sequence (Q1GBI9 whole entry) above
T5 sequence (Q1GBI8 entry or part of it, further chain): as the sequence (Q1GBI8 entry or part of it) above

FolT1 [5] = target: T6, FolT1 (Lactobacillus delbrueckii, UniProt Q1G930); assay: intrinsic fluorescence titration; crystal structure […] Å; format: binding; details: read-out: dissociation constant
T6 construct: gene Ldb1624; solitary S-component, N-terminal His8-tag, expressed in Lactococcus lactis NZ9000, purified in n-nonyl-beta-D-glucopyranoside
T6 sequence (Q1G930 entry or part of it): as the sequence (Q1G930 entry or part of it Y122N) above, with N122Y counted along it

Nc1ncnc2c1ncn2[C@@H]1O[C@H](COP(=O)(O)OP(=O)(O)NP(=O)(O)O)[C@@H](O)[C@H]1O [AMP–PNP]
crystal structure 3.3 Å (ECF–FolT2 [1]): EcfA and EcfA′ each bind a molecule of the nucleotide

Nc1ncnc2c1ncn2[C@@H]1O[C@H](COP(=O)(O)OP(=O)(O)OP(=O)(O)O)[C@@H](O)[C@H]1O [ATP]
coupled-enzyme ATPase assay in proteoliposomes (ECF–FolT2 [2]): we also measured the ATPase activity of ECF–FolT2 in the proteoliposomes

Nc1nc2ncc(CNc3ccc(C(=O)N[C@@H](CCC(=O)O)C(=O)O)cc3)nc2c(=O)[nH]1 [folate]
Kd (FolT2): 3.1 ± 1.4 nM | radiolabelled folate uptake and efflux in proteoliposomes (ECF–FolT2 [3]): ECF transporters indeed translocate their substrates across the membrane | Kd (FolT1 [4]): 2.5 ± 1.2 nM | radiolabelled folate uptake in proteoliposomes (ECF–FolT1): Both ECF transporters mediated association of radiolabelled folate with the proteoliposomes | Kd (FolT1 [5]): 1 ± 0.24 nM
